Test results from paper PMC8251916 (Chemistry (Weinheim an Der Bergstrasse, Germany), 2021).
Like-named read-outs stand apart in the source and are kept apart here.

What was measured:
[1] = system: F21T-Na+ (human telomeric G-quadruplex, antiparallel); test: FRET melting assay, human telomeric G4 in sodium buffer; assay type: binding; conditions: 200 nM DNA, PIPER and 3 not reliable (spectral overlap)
Protocol: (§1) With the library in hand, we began our investigation into G4 stabilization by conducting a Förster resonance energy transfer (FRET) melting assay to assess DNA stabilization using the procedure outlined by De Cian et. al. ^[13] […] The sequences examined (at 200 nM) were the human telomeric G4 in potassium buffer (F21T‐K^+, mixed parallel/hybrid G4) ^[14] and sodium buffer (F21T‐Na^+, antiparallel G4), ^[15] the c‐Myc promoter G‐quadruplex (FmycT‐K^+, parallel G4), ^[16] a polymorphic G4 found in T. brucei (FEBR1T‐K^+, a mixed G4 topology), ^[6b] and a hairpin duplex DNA sequence (F10T‐K^+). Together, these sequences represent targets for therapeutic intervention to treat parasitic infections, ^[6b] or cancer. ^[1b] The topology of each sequence was confirmed independently via circular dichroism (CD, Figure S1). […]
(§2) FRET melting assays were performed to assess ligand affinity for duplex and G-quadruplex
(§3) DNA. Briefly, oligonucleotides of interest were obtained labelled at the 5’ and 3’ ends with FAM (a fluorescence donor) and TAMRA (a fluorescence quencher), respectively. In the folded state, proximity of the donor and quencher result in no observed fluorescence from FAM, since energy is transferred non-radiatively to TAMRA by FRET. As the temperature is raised and the secondary structure denatures, the fluorophores move further apart and the fluorescence signal increases. From the resulting curve, the characteristic melting temperature (Tmax, also referred to as Tm) is defined as the temperature which corresponds to the maxima of the first derivative of the normalised fluorescence signal. The change in melting temperature (ΔTm) induced by the presence of a small molecule ligand provides an indication of the ligand’s ability to stabilise the DNA structure. FRET experiments were performed according to the […]
(§4) procedure reported by De Cian and co-workers[S3] on a Stratagene MX3005P. The method consisted of holding at 25 °C for 5 min, before heating at 1 °C/min to 96 °C in 1 °C increments, […]

[2] = system: HeLa cervical carcinoma cells; test: Cytotoxicity, alamarBlue assay, HeLa; assay type: cell-based, human; conditions: Homo sapiens, HeLa; 72 h incubation, alamarBlue fluorescence; read-out: absolute EC50 HeLa
Protocol: (§5) Doxorubicin, suramin and miltefosine were used as control compounds.[ ^6b , ^9 ] After incubation with varied concentrations of the compounds for 72 h, cell viability was measured using either an alamarBlue™ assay (for MRC5, HeLa and T. brucei) or MTT assay (for L. major). Absolute EC50 values and selectivity indexes were then calculated from dose‐response curves (Table 2 and S14). […]
(§6) Cell culture reagents were purchased from Thermo Fisher Scientific (Waltham, MA, USA) and used as-is. The Dulbecco’s Minimal Essential Medium (DMEM) formulation contained either high glucose (4.5 g/L, catalogue number: 10569) or low glucose (1 g/L, catalogue number:
(§7) 10567). RPMI-1640 was provided without sodium pyruvate and with L-glutamine (catalogue number: 11875). Phosphate Buffered Saline (PBS) contained NaCl (9 g/L), KH2PO4 (144 mg/L) and Na2HPO4-7.H2O (795 mg/L, catalogue number: 10010049). TrypLE Express™ was provided with EDTA (458 mg/L) and without Phenol Red (catalogue number: 12604021).
MRC-5 cells (human lung fibroblasts) were grown in monolayer (37 °C, 5 % CO2 and 100 % humidity) in DMEM medium (1 g/L glucose), supplemented with 10% heat-inactivated Fetal Bovine Serum (hiFBS), 2 mM L-glutamine, 100 U / mL penicillin and […] streptomycin. HeLa (Human cervical carcinoma cell line) cells were maintained at 37 °C and 5 % CO2 in high glucose DMEM (4.5 g / L) supplemented with 10% hiFBS, 100 U / ml penicillin, […] streptomycin, 2 mM L-glutamine and non-essential aminoacids (1X).
(§8) Cells were cultured according to ATCC recommendations and were used for the experiments while in the exponential growth phase. […]
(§9) Cytotoxicity was measured through the alamarBlue® assay (Thermo Fisher Scientific).[S6,S13] Briefly, 5×10^3 MRC-5 or HeLa cells were seeded in 96-wells plates (100 µL / well) in the presence of increasing concentrations of compound. After 72 hrs of incubation at 37 °C, 20 µL of alamarBlue® solution (110 ng / ml) was added to each well and cells were reincubated for 4 hrs at 37 °C. Then, 50 µL of 3 % SDS were added to each well. The plate was incubated at 37 °C for an extra hour and then analysed by fluorescence with an Infinite F200 plate reader (TECAN Austria, GmbH). The excitation wavelength was fixed at 550 nm and the emission wavelength at 590 nm. The results are expressed as the concentration of compound that reduces

T. brucei [3] = test: Trypanocidal activity, alamarBlue assay; assay type: cell-based; conditions: Trypanosoma brucei; 72 h incubation, alamarBlue fluorescence; read-out: absolute EC50 T. brucei
Protocol: as §5, §6, §7
(§10) MRC-5 cells (human lung fibroblasts) were grown in monolayer (37 °C, 5 % CO2 and 100 % humidity) in DMEM medium (1 g/L glucose), supplemented with 10% heat-inactivated Fetal Bovine Serum (hiFBS), 2 mM L-glutamine, 100 U / mL penicillin and […]
(§11) streptomycin. […]
as §8
hiFBS. Parasites were split every other day and maintained in their experimental growth phase (below 2 million parasites per mL).
as §9

[4] = system: Febr1T-K+ (T. brucei G-quadruplex); test: FRET melting assay, T. brucei G4; assay type: binding; conditions: 200 nM DNA, PIPER and 3 not reliable (spectral overlap)
Protocol: as §1, §2, §3, §4

[5] = system: F21T (DNA, G4) GGGTTAGGGTTAGGGTTAGGG; test: FRET melting; conditions: 10 mM K+, 90 mM Li+, 10 mM Li cacodylate, 200 nM DNA
[6] = system: F21T-K+ (human telomeric G-quadruplex, mixed parallel/hybrid); test: FRET melting assay, human telomeric G4 in potassium buffer; assay type: binding; conditions: 200 nM DNA, PIPER and 3 not reliable (spectral overlap)
Protocol: as §1, §2, §3, §4

[7] = system: FmycT-K+ (c-Myc promoter G-quadruplex, parallel); test: FRET melting assay, c-Myc promoter G4; assay type: binding; conditions: 200 nM DNA, PIPER and 3 not reliable (spectral overlap)
Protocol: as §1, §2, §3, §4

MRC5 non-tumoral cells = test: Cytotoxicity, alamarBlue assay, MRC5; assay type: cell-based, human; conditions: Homo sapiens, MRC5, 72 h, 72 h incubation, alamarBlue fluorescence; read-out: absolute EC50 MRC5
Protocol: as §5, §6, §7, §10, §11, §8, §9

L. major = test: Leishmaniacidal activity, MTT assay; assay type: cell-based; conditions: Leishmania major; 72 h incubation, MTT absorbance; read-out: absolute EC50 L. major
Protocol: Doxorubicin, suramin and miltefosine were used as control compounds.[ ^6b , ^9 ] After incubation with varied concentrations of the compounds for 72 h, cell viability was measured using either an alamarBlue™ assay (for MRC5, HeLa and T. brucei) or MTT assay (for L. major). Absolute EC50 values and selectivity indexes were then calculated from dose‐response curves (Table 2 and S14).
Invitrogen). L. major promastigotes (MHOM/IL/80/Friedlin) were cultured at 28 °C, 5 % CO2 in modified RPMI-1640 medium (Thermo Fisher Scientific, Waltham, MA, USA) with 10% hiFBS. Parasites were split every other day and maintained in their experimental growth phase (below 2 million parasites per mL). […]
The results are expressed as the concentration of compound that reduces cell growth by 50 % versus untreated control cells (EC50) using GraphPad Prism 7 (GraphPad Software) to fit the data to a sigmoidal curve. Data are presented as the average of three independent measurements all conducted in triplicate conditions. […]
The leishmaniacidal activity of the compounds on promastigotes L. major (MHOM/IL/80/Friedlin) was carried out as previously described.[S14] Briefly, 4 × 10^6 / mL promastigotes were incubated for 72 h at 28 °C in 96-well plates (50 µL/well) in the presence of increasing concentration of compounds. Cell proliferation was determined using an MTT-based assay (Sigma-Aldrich). Thus, after the 72 h incubation, 10 µL of MTT (5 mg/ml) were added to each well and parasites were reincubated for 4 hrs at 28 °C. Then, 50 µL of 20 % SDS were added to each well. The plate was then incubated at 37°C for 4-16 hrs and analysed using an Infinite F200 plate reader (TECAN Austria, GmbH). The absorbance was measured […]
at a wavelength of 540 nm and the EC50 was calculated as described above. Data are presented as the average of three independent measurements, all conducted in triplicate conditions. […]

[8] = system: F10T-K+ (hairpin duplex DNA); test: FRET melting assay, hairpin duplex DNA; assay type: binding; conditions: 200 nM DNA, PIPER and 3 not reliable (spectral overlap)
Protocol: as §1, §2, §3, §4

T. brucei [9] = system: T. brucei; parameters: method as in earlier work; conditions: typical G4 interactive compounds; ref 6b; cited from earlier work
[10] = system: FMycT (DNA, G4) TTGAGGGTGGGTAGGGTGGGTAA; test: FRET melting; conditions: 1 mM K+, 99 mM Li+; 10 mM Li cacodylate; 1 µM ligand, 200 nM DNA
[11] = system: Febr1T (DNA, G4) GGGCAGGGGGTGATGGGGAGGAGCCAGGG; test: FRET melting; conditions: 10 mM K+, 90 mM Li+; 10 mM Li cacodylate; 1 µM ligand, 200 nM DNA
[12] = system: F10T (DNA, hairpin, hexaethylene glycol (HEG) linker between 10 and 11) TATAGCTATATATAGCTATA; test: FRET melting; conditions: 10 mM K+, 90 mM Li+; 10 mM Li cacodylate; 1 µM ligand, 200 nM DNA

Structure (SMILES): CN1CCN(CCCN2C(=O)c3ccc(-c4ccc5c(c4)C(=O)N(CCCN4CCN(C)CC4)C5=O)cc3C2=O)CC1 [Compound 4]
- ΔTm F21T-Na+ ([1]; 10 µM ligand): -2 ± 2 °C
- EC50 [2]: > 100 µM
- EC50 (T. brucei [3]): 57 ± 10 µM
- ΔTm Febr1T-K+ ([4]; 10 µM ligand): 3 ± 1 °C
- ΔTm ([5]; 10 µM ligand): 1 ± 1 °C
- ΔTm F21T-K+ ([6]; 10 µM ligand): 1 ± 1 °C
- ΔTm FmycT-K+ ([7]; 10 µM ligand): 2 ± 1 °C
- EC50 (MRC5 non-tumoral cells): > 100 µM
- EC50 (L. major): > 100 µM
- ΔTm F10T-K+ ([8]; 10 µM ligand): 0 ± 1 °C

Structure (SMILES): NCCOc1cc(C(=O)Nc2cc(OCCN)c3ccccc3n2)nc(C(=O)Nc2cc(OCCN)c3ccccc3n2)c1 [Pyridostatin, reference compound]
- ΔTm F21T-Na+ ([1]; 1 µM ligand): 36 ± 2 °C
- EC50 (T. brucei [9]): 5.5 µM
- ΔTm Febr1T-K+ ([4]; 1 µM ligand): 29 ± 2 °C
- ΔTm ([5]; 1 µM ligand): 34 ± 1 °C
- ΔTm F21T-K+ ([6]; 1 µM ligand): 34 ± 1 °C
- ΔTm FmycT-K+ ([7]; 1 µM ligand): 20 ± 3 °C
- ΔTm [10]: 20 ± 3 °C
- ΔTm [11]: 29 ± 2 °C
- ΔTm F10T-K+ ([8]; 1 µM ligand): 1 ± 1 °C

Structure (SMILES): C[n+]1ccc(-c2c3nc(c(-c4cc[n+](C)cc4)c4ccc([nH]4)c(-c4cc[n+](C)cc4)c4nc(c(-c5cc[n+](C)cc5)c5ccc2[nH]5)C=C4)C=C3)cc1
- ΔTm [12]: 9 ± 1 °C

Structure (SMILES): CN(C)c1ccc(Nc2c3ccc(NC(=O)CCN4CCCC4)cc3nc3cc(NC(=O)CCN4CCCC4)ccc23)cc1 [BRACO‐19]
- EC50 (T. brucei [9]): 7.8 µM
- selectivity index (SI) T. brucei over MRC5 (T. brucei [9]): 1.5
